Experimental data as given in the NIST ThermoML archive (doi:10.1021/je500053c).

Key:
[1] = 101.33 kPa, Liquid, Vibrating tube method
[2] = xn = mol fraction of the nth substance listed; details: 101 kPa, Liquid, Vibrating tube method

CCCCCC[n+]1ccn(C)c1.O=S(=O)([N-]S(=O)(=O)C(F)(F)F)C(F)(F)F
[1]
Details	mass density [kg/m3]
288.15 K	1381.4
298.15 K	1372
308.15 K	1362.7
318.15 K	1353.5

CCCCn1cc[n+](C)c1.CS(=O)(=O)[O-] [1-butyl-3-methylimidazolium methanesulfonate] + O
mass density [kg/m3], [2]
Details	x1 = 0.025	x1 = 0.05	x1 = 0.075	x1 = 0.1	x1 = 0.148	x1 = 0.199	x1 = 0.251	x1 = 0.298	x1 = 0.346	x1 = 0.441
298.15 K	1038.1	1068.4	1089.3	1104.5	1123.9	1137.1	1145.7	1151.3	1154.9	1160.6
313.15 K	1031.2	1059.7	1079.7	1093.5	1113.6	1126.8	1135.5	1141.2	1144.8	1150.6
323.15 K	1025.9	1053.6	1073.1	1087.6	1106.6	1119.9	1128.6	1134.4	1138.1	1144
333.15 K	1020.1	1047.1	1066.2	1080.5	1099.5	1112.9	1121.7	1127.6	1131.4	1137.3
343.15 K	1013.9	1040.3	1059.2	1073.3	1092.3	1105.7	1114.7	1120.7	1124.6	1130.7
358.15 K	1003.9	1029.7	1048.2	1062.3	1081.2	1094.9	1104.1	1110.3	1114.4	1120.7

O [water] + CCCCn1cc[n+](C)c1.CS(=O)(=O)[O-]
[2], x2 = 0
Details	mass density [kg/m3]
333.15 K	983.2
343.15 K	977.8
358.15 K	968.3
